According to patent publication US9169241B2, “Quinolinyloxyphenylsulfonamides” (Max-Planck-Gesellschaft Zur Forderung der Wissenschaften …, priority 2009, dated 2015):
Like-named read-outs stand apart in the source and are kept apart here.

Legend:
Type in all cases: cell-based
A172 = test: Cell vitality assay (ATP assay, CellTiter-Glo); conditions: Homo sapiens, A 172; A172, 72 h; Table IIa; read-out: IC50 ATP-Assay after 72 h A172
Outline: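 Luminescent ATP read-out of viable cells; IC50 = concentration at which ATP falls to 50% of DMSO control. Cells seeded at 1000/well, treated 72 h with seven concentrations from 0.195 to 12.5 μM.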

tumor cell = test: Matrigel outgrowth assay/branching assay (Table Va)
Outline: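 Invasive outgrowth into a 3 mg/ml Matrigel gel is judged from images taken after 48, 72 and 96 h of exposure to 3.125, 1.56 or 0.78 μM compound, with DMSO as control. Positive means total inhibition of branching.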

viable cells in culture = test: Cell viability assay at 10 μM (CellTiter-Glo, Table VII); conditions: compound 10 μM, 72 h;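 also: graded A 0-20%; B 21-40%; C 41-60%; D over 60% viable cells relative to DMSO control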
Outline: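 Cells were seeded at 1000 cells/well in 96-well plates in 100 μl culture medium and incubated for 72 h with 10 μM compound or a DMSO control. ATP content, which reflects metabolically active and therefore viable cells, was then determined by CellTiter-Glo luminescence (Promega) per the manufacturer's instructions and expressed relative to the DMSO control.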

SF126 = test: Apoptosis assay (Cellomics, nucleus condensation); conditions: Homo sapiens, SF-126, Table III, read-out: Apoptosis induction in SF126
Outline: (§1)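 5000 cells/well, Hoechst 33342 live stain; cpd 12.5, 6.25, 3.125, 1.56, 0.78, 0.39 μM or DMSO; imaged 24 h + 48 h; nuclear condensation = intensity variation per nucleus; cell number loss noted.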

U138 = test: Apoptosis assay (Cellomics, nucleus condensation); conditions: Table III, read-out: Apoptosis induction in U138
Outline: as §1

Hs578T = test: Apoptosis assay (Cellomics, nucleus condensation); conditions: Homo sapiens, Hs-578T, Table III, read-out: Apoptosis induction in Hs578T
Outline: as §1

C8161 = test: Apoptosis assay (Cellomics, nucleus condensation); conditions: Homo sapiens, Table III, read-out: Apoptosis induction in C8161
Outline: as §1

SF763 = test: Apoptosis assay (Cellomics, nucleus condensation); conditions: Table III, read-out: Apoptosis induction in SF763
Outline: as §1

U118 = test: Apoptosis assay (Cellomics, nucleus condensation); conditions: Table III, read-out: Apoptosis induction in U118
Outline: as §1

[1] = Homo sapiens, C8161 cells, read-out: Total branching inhibition in Matrigel C8161
[2] = Homo sapiens, Hs-578T, Hs578T cells, read-out: Total branching inhibition in Matrigel Hs578T
[3] = U118 cells, read-out: Total branching inhibition in Matrigel U118
[4] = U138 cells, read-out: Total branching inhibition in Matrigel U138
[5] = Homo sapiens, HCT-116, HCT116 def, read-out: percentage (%) of viable cells HCT 116def
[6] = Homo sapiens, HCT-116, HCT116 wt, read-out: percentage (%) of viable cells HCT 116wt
[7] = Homo sapiens, HT-29, HT29, read-out: percentage (%) of viable cells HT29
[8] = Homo sapiens, NCI-H358, H358, read-out: percentage (%) of viable cells H358
[9] = Homo sapiens, NCI-H1650, H1650, read-out: percentage (%) of viable cells H1650
[10] = Homo sapiens, NCI-H1666, H1666, read-out: percentage (%) of viable cells H1666
[11] = Homo sapiens, NCI-H1975, H1975, read-out: percentage (%) of viable cells H1975
[12] = Homo sapiens, NCI-H1993, H1993, read-out: percentage (%) of viable cells H1993
[13] = Homo sapiens, A549, read-out: percentage (%) of viable cells A549
[14] = Homo sapiens, HCC827, read-out: percentage (%) of viable cells HCC827
[15] = Homo sapiens, SW480, read-out: percentage (%) of viable cells SW480
[16] = RKO, read-out: percentage (%) of viable cells RKO

Structure (SMILES) | IC50 (tumor cell; [1]) | IC50 (tumor cell; [2]) | IC50 (tumor cell; [3]) | IC50 (tumor cell; [4]) | viability at 10 µM (viable cells in culture; [5]) | viability at 10 µM (viable cells in culture; [6]) | viability at 10 µM (viable cells in culture; [7]) | viability at 10 µM (viable cells in culture; [8]) | viability at 10 µM (viable cells in culture; [9]) | viability at 10 µM (viable cells in culture; [10]) | viability at 10 µM (viable cells in culture; [11]) | viability at 10 µM (viable cells in culture; [12]) | viability at 10 µM (viable cells in culture; [13]) | viability at 10 µM (viable cells in culture; [14]) | viability at 10 µM (viable cells in culture; [15]) | viability at 10 µM (viable cells in culture; [16]) | IC50 (SF126) | IC50 (U138) | IC50 (Hs578T) | IC50 (C8161) | other results
COc1cc2c(Oc3ccc(NS(=O)(=O)c4c(Cl)cccc4Cl)cc3F)ccnc2cc1OCCCN1CCCCC1 [Example 6, 2,6-Dichloro-N-{3-fluoro-4-[6-methoxy-7-(3-piperidin-1-yl-propoxy)-quinolin-4-yloxy]-phenyl}-benzenesulfonamide] | – | – | – | – | – | – | – | – | – | – | – | – | – | – | – | – | – | – | – | – | IC50 (A172): ≤ 12.5 µM
COc1cc2c(Oc3ccc(NS(=O)(=O)c4c(F)cccc4F)cc3F)ccnc2cc1OCCCN1CCCCC1 [Example 11, 2,6-Difluoro-N-{3-fluoro-4-[6-methoxy-7-(3-piperidin-1-yl-propoxy)-quinolin-4-yloxy]-phenyl}-benzenesulfonamide] | – | – | – | – | – | – | – | – | – | – | – | – | – | – | – | – | – | – | – | – | IC50 (A172): 12.5 to 50 µM
COc1cc2c(Oc3ccc(NS(=O)(=O)c4cc(Cl)cc(Cl)c4OC)cc3F)ccnc2cc1OCCCN1CCCCC1 [Example 34, 3,5-Dichloro-N-{3-fluoro-4-[6-methoxy-7-(3-piperidin-1-yl-propoxy)-quinolin-4-yloxy]-phenyl}-2-methoxy-benzenesulfonamide] | ≤ 5 µM | ≤ 5 µM | ≤ 5 µM | 5 to 50 µM | 21 to 40% | 0 to 20% | 21 to 40% | 0 to 20% | 21 to 40% | 21 to 40% | 0 to 20% | 0 to 20% | > 60% | > 60% | 0 to 20% | 0 to 20% | ≤ 12.5 µM | ≤ 12.5 µM | 12.5 to 50 µM | ≤ 12.5 µM | IC50 (SF763): ≤ 12.5 µM; IC50 (U118): ≤ 12.5 µM
COc1cc2c(Oc3ccc(NS(=O)(=O)c4cc(Cl)cc(Cl)c4OC)cc3F)ccnc2cc1OCCCN1CCN(C)CC1 [Example 35, 3,5-Dichloro-N-(3-fluoro-4-{6-methoxy-7-[3-(4-methyl-piperazin-1-yl)-propoxy]-quinolin-4-yloxy}-phenyl)-2-methoxy-benzenesulfonamide] | ≤ 5 µM | ≤ 5 µM | ≤ 5 µM | 5 to 50 µM | 21 to 40% | 0 to 20% | 0 to 20% | 0 to 20% | 21 to 40% | 21 to 40% | 0 to 20% | 21 to 40% | > 60% | 41 to 60% | 0 to 20% | 41 to 60% | ≤ 12.5 µM | 12.5 to 50 µM | ≤ 12.5 µM | ≤ 12.5 µM | IC50 (SF763): ≤ 12.5 µM; IC50 (U118): ≤ 12.5 µM
COc1cc2c(Oc3ccc(NS(=O)(=O)c4ccccc4[N+](=O)[O-])cc3F)ccnc2cc1OCCCN1CCCC(C)C1 (stereo not shown) [Example 40, N-(3-Fluoro-4-{6-methoxy-7-[3-(3-methyl-piperidin-1-yl)-propoxy]-quinolin-4-yloxy}-phenyl)-2-nitro-benzenesulfonamide] | – | – | – | – | – | – | – | – | – | – | – | – | – | – | – | – | – | – | – | – | IC50 (A172): ≤ 12.5 µM
COc1cc2c(Oc3ccc(NS(=O)(=O)c4ccc(F)c(Cl)c4)cc3F)ccnc2cc1OCCCN1CCCC(C)C1 (stereo not shown) [Example 57, 3-Chloro-4-fluoro-N-(3-fluoro-4-{6-methoxy-7-[3-(3-methyl-piperidin-1-yl)-propoxy]-quinolin-4-yloxy}-phenyl)-benzenesulfonamide] | 5 to 50 µM | ≤ 5 µM | ≤ 5 µM | ≤ 5 µM | 21 to 40% | > 60% | 0 to 20% | 21 to 40% | 41 to 60% | 41 to 60% | 0 to 20% | 21 to 40% | > 60% | > 60% | 0 to 20% | 0 to 20% | ≤ 12.5 µM | ≤ 12.5 µM | ≤ 12.5 µM | ≤ 12.5 µM | IC50 (SF763): 12.5 to 50 µM; IC50 (U118): ≤ 12.5 µM
COc1cc2c(Oc3ccc(NS(=O)(=O)c4cccc5ccccc45)cc3F)ccnc2cc1OCCCN1CCCC(C)C1 (stereo not shown) [Example 58, Naphthalene-1-sulfonic acid (3-fluoro-4-{6-methoxy-7-[3-(3-methyl-piperidin-1-yl)-propoxy]-quinolin-4-yloxy}-phenyl)-amide] | ≤ 5 µM | ≤ 5 µM | ≤ 5 µM | 5 to 50 µM | 21 to 40% | 0 to 20% | 0 to 20% | 21 to 40% | > 60% | 21 to 40% | 0 to 20% | 41 to 60% | 41 to 60% | > 60% | 0 to 20% | 0 to 20% | ≤ 12.5 µM | ≤ 12.5 µM | 12.5 to 50 µM | ≤ 12.5 µM | IC50 (SF763): ≤ 12.5 µM; IC50 (U118): 12.5 to 50 µM
COc1cc2c(Oc3ccc(NS(=O)(=O)c4ccccc4F)cc3F)ccnc2cc1OCCN1CCOCC1 [Example 81, 2-Fluoro-N-{3-fluoro-4-[6-methoxy-7-(2-morpholin-4-yl-ethoxy)-quinolin-4-yloxy]-phenyl}-benzenesulfonamide] | ≤ 5 µM | ≤ 5 µM | 5 to 50 µM | 5 to 50 µM | 21 to 40% | 21 to 40% | 21 to 40% | 0 to 20% | 21 to 40% | 21 to 40% | 0 to 20% | 21 to 40% | 41 to 60% | 0 to 20% | 0 to 20% | 41 to 60% | ≤ 12.5 µM | ≤ 12.5 µM | ≤ 12.5 µM | ≤ 12.5 µM | IC50 (SF763): ≤ 12.5 µM; IC50 (U118): ≤ 12.5 µM
COc1cc2c(Oc3ccc(NS(=O)(=O)c4c(F)cccc4F)cc3F)ccnc2cc1OCCN1CCOCC1 [Example 82, 2,6-Difluoro-N-{3-fluoro-4-[6-methoxy-7-(2-morpholin-4-yl-ethoxy)-quinolin-4-yloxy]-phenyl}-benzenesulfonamide] | 5 to 50 µM | ≤ 5 µM | ≤ 5 µM | 5 to 50 µM | 21 to 40% | 0 to 20% | 0 to 20% | 21 to 40% | 21 to 40% | 41 to 60% | 21 to 40% | 0 to 20% | > 60% | 21 to 40% | 21 to 40% | 41 to 60% | ≤ 12.5 µM | ≤ 12.5 µM | ≤ 12.5 µM | ≤ 12.5 µM | IC50 (SF763): ≤ 12.5 µM; IC50 (U118): ≤ 12.5 µM
COc1cc2c(Oc3cccc(NS(=O)(=O)c4ccccc4C(F)(F)F)c3)ccnc2cc1OCCCN1CCN(C)CC1 [Example 102, N-(3-{6-Methoxy-7-[3-(4-methyl-piperazin-1-yl)-propoxy]-quinolin-4-yloxy}-phenyl)-2-trifluoromethyl-benzenesulfonamide] | ≤ 5 µM | ≤ 5 µM | ≤ 5 µM | 5 to 50 µM | 0 to 20% | 0 to 20% | 0 to 20% | 0 to 20% | 41 to 60% | 41 to 60% | 21 to 40% | 21 to 40% | 41 to 60% | 21 to 40% | 0 to 20% | 21 to 40% | ≤ 12.5 µM | ≤ 12.5 µM | ≤ 12.5 µM | ≤ 12.5 µM | IC50 (SF763): ≤ 12.5 µM; IC50 (U118): ≤ 12.5 µM
